According to patent publication US8821839B2, “Compositions and methods for imparting a sunless tan with a vicinal diamine” (Conopco, Inc., priority 2010, dated 2014):

Assay: Individual Typologic Angle change on synthetic skin for 2.5% DHA plus adjuvant in citric acid/citrate buffer solution
Details: adjuvant at molar equivalent of 1% glycine; for ΔITA ° after 2 hours: pH about 5.5, 2 hours; for ΔITA ° after 4 hours: pH about 5.5, 4 hours
Protocol: The synthetic skin was pre-hydrated at 95% RH for 24 hours and then treated with portions of the samples at a dosage of 5 μL/cm^2. The treated synthetic skin was then stored at 35° C. and 40% RH for periods up to 24 hours. […]
Formulations in Table IV containing 2.5% DHA and the molar equivalent of 1% glycine as adjuvant in a citric acid/citrate buffer solution were prepared. The formulations were adjusted to a pH of about 5.5 to mimic the formulation pH after application to human skin.
Individual Typologic Angle results were obtained in a manner similar to the one described in Example 1.

CN(C)CCN [N,N-dimethyl ethylene diamine]
ΔITA ° after 2 hours: 4 ± 2 ° | ΔITA ° after 4 hours: 8 ± 2 °

CC(N)CN (stereo not shown) [1,2-diamino propane]
ΔITA ° after 2 hours: 17 ± 2 ° | ΔITA ° after 4 hours: 32 ± 3 °

NC1CCCCC1N (stereo not shown) [1,2-diamino cyclohexane]
ΔITA ° after 2 hours: 20 ± 3 ° | ΔITA ° after 4 hours: 35 ± 3 °

NCCCN [1,3-diamino propane]
ΔITA ° after 2 hours: 6 ± 3 ° | ΔITA ° after 4 hours: 16 ± 4 °

NCCN [Ethylene diamine]
ΔITA ° after 2 hours: 16 ± 2 ° | ΔITA ° after 4 hours: 32 ± 3 °

NCC(=O)O [Glycine]
ΔITA ° after 2 hours: 2 ± 1 ° | ΔITA ° after 4 hours: 7 ± 2 °

NCCCCN [1,4-diamino butane]
ΔITA ° after 2 hours: 4 ± 2 ° | ΔITA ° after 4 hours: 12 ± 4 °

NC1C(O)OC(CO)C(O)C1N (stereo not shown) [3,4-diamino-6-hydroxymethyl-tetrahydro-pyrane 2,5-diol]
ΔITA ° after 2 hours: 15 ± 3 ° | ΔITA ° after 4 hours: 23 ± 2 °
